For experiment [1], the target named is T1, human recombinant GABAA α5β3γ2 receptor (Homo sapiens (Human), UniProt P18507+P31644). Nature of the experiment: Binding assay, [3H]Ro151788 displacement on HEK cell membranes. Particulars: [3H]Ro151788 0.5 nM, 60 minutes at 4° C., Cheng-Prusoff; read-out: hGABAA α5 Ki. The protocol: The GABAA α5β3γ2 protein used for the receptor binding assay was derived from membranes produced from HEK cells (Millipore CYL3073) expressing the human recombinant GABAA α5β3γ2 receptor. Cells were stored and cultured in-house according to the instructions provided by the vendor (Millipore). Cell pellet was homogenized in 10 times modified Krebs Henseleit buffer (membrane preparation buffer): 20 mM Tris, 120 mM NaCl, 100 mM KCl, 25 mM CaCl2 and 25 mM MgCl2 pH=7.4 at 4° C. using Ultra Turrax (Janke&Kunkel) maximal speed for 15 seconds. The homogenate was centrifuged at 40,000 g for 30 minutes at 4° C. Supernatant was discarded and the resulting pellet was washed in membrane preparation buffer. Pellet was resuspended in membrane preparation buffer and aliquots of 1.4 mL ampules were stored at −70° C. until use.
Receptor binding assays were performed in 96-well format in deep-well plates. For each 96-well plate one ampule of membrane homogenate was thawed and diluted in binding buffer (50 mM Tris pH=7.4, 100 mM KCl) and 200 μL was dispensed into each well. Radioligand [^3H]Ro151788 (Perkin Elmer: NET757250UC) was prepared in binding buffer and added to each well in 50 μL volume to give final concentration of 0.5 nM. Test compounds in suitable concentration(s) were added in additional 50 μL. The final assay volume was 300 μL. Incubation was carried out for 60 minutes at 4° C. For non-specific binding 10 μM unlabeled diazepam was used. […] The plate was dried at 40° C. for an hour and 40 μL Microscint (Perkin Elmer) scintillation cocktail was added to each well. The plate was read in Microbeta (Perkin Elmer).
The specific radioligand binding (SB) was defined as the difference between total binding (Tot) and the non-specific binding (NSB). Results are expressed as a percent inhibition of specific binding obtained in the presence of compound of interest.
For IC50 and Ki determination a minimum of six drug concentrations in triplicate were used. […] Ki values (i.e., inhibition constants) were calculated using the Cheng-Prusoff equation Ki=IC5O/[1+(L/KD)], where [L] is the radioligand concentration and KD the affinity of the labelled ligand for receptor. KD was determined from the Saturation analyses.

Experiment [2] addresses T1, human recombinant GABAA α5β3γ2 receptor. Nature of the experiment: Functional assay, QPatch automated whole-cell patch clamp, modulation of GABA-evoked current. The class given is cell-based. Particulars: test compound 1 μM, GABA 1 μM, holding potential −80 mV; read-out: hGABAA α5 efficacy (percentage modulation of GABA-evoked peak current). As to the method:
Human HEK293 cell lines expressing GABAAα5β3γ2 receptors were used in functional assays using the QPatch automated patch clamp system.
HEK293 cell lines stably expressing human recombinant GABAA α5β3γ2 receptor subunits (Millipore, CYL3053) were cultured in DMEM supplemented with 10% FBS (Gibco), passed two times per week and plated on Petri dishes previously coated with poly-d-lysine.
Automated whole-cell patch clamp recordings were made from cells 2-4 days after plating.
Inward currents were evoked at a holding potential of −80 mV by 3-s-long applications of the control agonist GABA at 1 μM at 2-4-min intervals first in concentration-matched DMSO (0.1 or 0.3%) control solution for five times, then in the presence of the test compound for four times, finally in control solution again for three times (wash-out). At the end of the experiment 100 μM GABA was applied to saturate the GABA-response and to assess the efficacy of the control GABA application. Current signals were low-pass filtered at 100 Hz and recorded at a sampling rate of 1 kHz.
The percentage modulation was calculated from the comparison of GABA-evoked peak current amplitudes in the presence and absence of the test compound.
On the technique in general: The patch-clamp technique gives a direct electrical read-out from membranes.

pKi: −log10 of the molar value. Structures can show the parent of a compound that is named as a salt.

T1 sequence (P31644 32-462): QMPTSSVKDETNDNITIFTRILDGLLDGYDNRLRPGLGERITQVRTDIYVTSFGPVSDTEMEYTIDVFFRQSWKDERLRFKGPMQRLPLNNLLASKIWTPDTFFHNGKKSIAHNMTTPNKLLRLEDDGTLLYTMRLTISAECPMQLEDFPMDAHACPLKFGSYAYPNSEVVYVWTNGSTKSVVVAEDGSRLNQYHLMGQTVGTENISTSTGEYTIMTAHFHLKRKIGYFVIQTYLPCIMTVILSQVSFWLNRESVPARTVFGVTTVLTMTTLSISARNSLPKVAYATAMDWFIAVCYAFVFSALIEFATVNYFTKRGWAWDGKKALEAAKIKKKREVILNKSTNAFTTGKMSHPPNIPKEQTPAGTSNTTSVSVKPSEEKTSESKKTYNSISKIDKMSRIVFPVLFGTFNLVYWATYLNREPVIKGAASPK
T1 sequence (P28472 26-473 partner): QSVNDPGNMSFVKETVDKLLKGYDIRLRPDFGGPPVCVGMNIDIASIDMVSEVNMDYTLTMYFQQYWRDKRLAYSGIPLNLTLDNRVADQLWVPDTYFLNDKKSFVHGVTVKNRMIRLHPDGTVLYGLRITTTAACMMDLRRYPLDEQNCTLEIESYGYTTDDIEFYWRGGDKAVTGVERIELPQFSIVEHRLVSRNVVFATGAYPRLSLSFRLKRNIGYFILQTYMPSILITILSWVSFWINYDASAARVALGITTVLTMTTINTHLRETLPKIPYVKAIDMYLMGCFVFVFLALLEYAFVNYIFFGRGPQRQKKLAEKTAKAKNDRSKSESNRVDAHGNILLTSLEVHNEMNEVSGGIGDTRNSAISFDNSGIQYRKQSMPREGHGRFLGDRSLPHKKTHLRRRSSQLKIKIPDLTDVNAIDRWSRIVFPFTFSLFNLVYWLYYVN
T1 sequence (P18507 40-475): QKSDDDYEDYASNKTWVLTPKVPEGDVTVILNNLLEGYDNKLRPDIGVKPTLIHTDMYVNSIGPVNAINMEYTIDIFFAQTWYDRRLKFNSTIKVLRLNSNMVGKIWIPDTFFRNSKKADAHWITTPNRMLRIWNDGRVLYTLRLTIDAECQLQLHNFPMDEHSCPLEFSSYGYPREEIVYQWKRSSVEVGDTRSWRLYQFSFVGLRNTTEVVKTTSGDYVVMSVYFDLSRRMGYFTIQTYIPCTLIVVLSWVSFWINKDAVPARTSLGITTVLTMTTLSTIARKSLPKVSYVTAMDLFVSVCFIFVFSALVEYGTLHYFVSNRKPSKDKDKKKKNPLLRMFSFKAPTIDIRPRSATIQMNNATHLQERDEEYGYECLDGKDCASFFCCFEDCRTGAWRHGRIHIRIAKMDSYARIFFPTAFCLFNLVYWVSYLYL

On to `Cc1ccc(-n2nnc(C)c2COc2cc3c(cn2)CNCC3)cn1` [Example 20, 6-{[4-methyl-1-(6-methylpyridin-3-yl)-1H-1,2,3-triazol-5-yl]methoxy}-1,2,3,4-tetrahydro-2,7-naphthyridine], for which the pKi in experiment [1] is 7.58. In experiment [2], the activation at 1 µM was determined as 111%. `Cc1onc(-c2ccc(C(F)(F)F)nc2)c1COc1cc2c(nn1)CNCC2` [Example 15, 5-[5-methyl-4-({5H,6H,7H,8H-pyrido[3,4-c]pyridazin-3-yloxy}methyl)-1,2-oxazol-3-yl]-2-(trifluoromethyl)pyridine]: in experiment [1], the pKi was 7.77. Moreover, the activation at 1 µM in experiment [2] was determined as 115%.

With `Cc1nnn(-c2ccc(C(F)(F)F)nc2)c1COc1cc2c(cn1)CN(c1cccnc1)CC2` [Example 37, 6-({4-methyl-1-[6-(trifluoromethyl)pyridin-3-yl]-1H-1,2,3-triazol-5-yl}methoxy)-2-(pyridin-3-yl)-1,2,3,4-tetrahydro-2,7-naphthyridine napadysilate salt], the activation at 1 µM in experiment [2] stood at 53%.

Consider `CCC1(N2CCc3cc(OCc4c(C)nnn4-c4ccc(C)nc4)ncc3C2)COC1` [Example 43, 2-(3-ethyloxetan-3-yl)-6-{[4-methyl-1-(6-methylpyridin-3-yl)-1H-1,2,3-triazol-5-yl]methoxy}-1,2,3,4-tetrahydro-2,7-naphthyridine napadisylate salt], for which, in experiment [2], the activation at 1 µM is 85%.

Take `Cc1ccc(-c2noc(C)c2COc2cc3c(cn2)CN(C2COC2)CC3)cn1` [Example 10, 6-{[5-methyl-3-(6-methylpyridin-3-yl)-1,2-oxazol-4-yl]methoxy}-2-(oxetan-3-yl)-1,2,3,4-tetrahydro-2,7-naphthyridine]: the pKi in experiment [1] is 8.35. Also, the activation at 1 µM in experiment [2] came to 131%. For the compound `Cc1nnn(-c2ccc(C(F)(F)F)nc2)c1COc1cc2c(cn1)CNCC2` [Example 25, 6-({4-methyl-1-[6-(trifluoromethyl)pyridin-3-yl]-1H-1,2,3-triazol-5-yl}methoxy)-1,2,3,4-tetrahydro-2,7-naphthyridine], in experiment [1], the pKi was 6.89. The activation at 1 µM in experiment [2] is 73%. As to `COc1ccc(-n2nnc(C)c2COc2cc3c(cn2)CNCC3)cn1` [Example 34, 6-{[1-(6-methoxypyridin-3-yl)-4-methyl-1H-1,2,3-triazol-5-yl]methoxy}-1,2,3,4-tetrahydro-2,7-naphthyridine], in experiment [1], the pKi is 7.29. Besides, the activation at 1 µM in experiment [2] was found to be 62%. Consider `Cc1nnn(-c2ccc(C(F)F)nc2)c1COc1cc2c(cn1)CN(C1CCOC1)CC2` (stereo not shown) [Example 30, 6-({1-[6-(difluoromethyl)pyridin-3-yl]-4-methyl-1H-1,2,3-triazol-5-yl}methoxy)-2-(oxolan-3-yl)-1,2,3,4-tetrahydro-2,7-naphthyridine], for which the pKi in experiment [1] was 8.48. For the same compound, the activation at 1 µM in experiment [2] was determined as 59%. Turning to `Cc1onc(-c2ccc(C(F)(F)F)nc2)c1COc1cc2c(nn1)CN(C)CC2` [Example 17], in experiment [1], the pKi was 7.75. Consider `Cc1ccc(-n2nnc(C)c2COc2cc3c(cn2)CN(C2(C(C)C)COC2)CC3)cn1` [Example 42, 6-{[4-methyl-1-(6-methylpyridin-3-yl)-1H-1,2,3-triazol-5-yl]methoxyl}-2-[3-(propan-2-yl)oxetan-3-yl]-1,2,3,4-tetrahydro-2,7-naphthyridine napadisylate salt], for which the activation at 1 µM in experiment [2] worked out at 99%. Take `Cc1ccc(-n2nnc(C)c2COc2cc3c(cn2)CN([C@@H]2CCOC2)CC3)cn1` (single isomer, unassigned) [Example 38, 6-{[4-methyl-1-(6-methylpyridin-3-yl)-1H-1,2,3-triazol-5-yl]methoxy}-2-[(3S)-oxolan-3-yl]-1,2,3,4-tetrahydro-2,7-naphthyridine or enantiomer, tartarate salt]: in experiment [1], the pKi was 7.68. As to `Cc1ccc(-c2noc(C)c2COc2cc3c(cn2)CN(C2CCCC2)CC3)cn1` [Example 6, 2-cyclopentyl-6-{[5-methyl-3-(6-methylpyridin-3-yl)-1,2-oxazol-4-yl]methoxy}-1,2,3,4-tetrahydro-2,7-naphthyridine], in experiment [1], the pKi was 8.08. Regarding `Cc1onc(-c2ccc(C(F)(F)F)nc2)c1COc1cc2c(cn1)CN(C(C)CS(C)(=O)=O)CC2` (stereo not shown) [Example 12, 2-(1-methanesulfonylpropan-2-yl)-6-({5-methyl-3-[6-(trifluoromethyl)pyridin-3-yl]-1,2-oxazol-4-yl}methoxy)-1,2,3,4-tetrahydro-2,7-naphthyridine], the pKi in experiment [1] is 7.55. Turning to `Cc1nnn(-c2ccc(C(F)(F)F)nc2)c1COc1cc2c(cn1)CN(C(C)C)CC2` [Example 26, 6-({4-methyl-1-[6-(trifluoromethyl)pyridin-3-yl]-1H-1,2,3-triazol-5-yl}methoxy)-2-(propan-2-yl)-1,2,3,4-tetrahydro-2,7-naphthyridine], the pKi in experiment [1] was 7.03.

For `Cc1ccc(-n2nnc(C)c2COc2cc3c(cn2)CN([C@H]2CCOC2)CC3)cn1` (single isomer, unassigned) [Example 39, 6-{[4-methyl-1-(6-methylpyridin-3-yl)-1H-1,2,3-triazol-5-yl]methoxy}-2-[(3R)-oxolan-3-yl]-1,2,3,4-tetrahydro-2,7-naphthyridine or enantiomer, tartarate salt], the pKi in experiment [1] was 7.67. Turning to `Cc1nnn(-c2ccc(C(F)F)nc2)c1COc1cc2c(cn1)CN(C(C)C)CC2` [Example 28, 6-({1-[6-(difluoromethyl)pyridin-3-yl]-4-methyl-1H-1,2,3-triazol-5-yl}methoxy)-2-(propan-2-yl)-1,2,3,4-tetrahydro-2,7-naphthyridine], in experiment [1], the negative-log Ki (pKi) is 8.23.

`Cc1nnn(-c2ccc(C(F)(F)F)nc2)c1COc1cc2c(cn1)CN(C1CCOCC1)CC2` [Example 35, 6-({4-methyl-1-[6-(trifluoromethyl)pyridin-3-yl]-1H-1,2,3-triazol-5-yl}methoxy)-2-(oxan-4-yl)-1,2,3,4-tetrahydro-2,7-naphthyridine]: the pKi in experiment [1] is 7.05. Still for that read-out and setting: the value for `Cc1nnn(-c2ccc(C(F)(F)F)nc2)c1COc1cc2c(cn1)CN(C)CC2` [Example 27, 2-methyl-6-({4-methyl-1-[6-(trifluoromethyl)pyridin-3-yl]-1H-1,2,3-triazol-5-yl}methoxy)-1,2,3,4-tetrahydro-2,7-naphthyridine] was 7.20.

For the compound `COc1ccc(-n2nnc(C)c2COc2cc3c(cn2)CN(C2CCOCC2)CC3)cn1` [Example 40, 6-{[1-(6-methoxypyridin-3-yl)-4-methyl-1H-1,2,3-triazol-5-yl]methoxy}-2-(oxan-4-yl)-1,2,3,4-tetrahydro-2,7-naphthyridine heminapadisylate salt], in experiment [2], the activation at 1 µM is 86%. As for `Cc1ccc(-c2noc(C)c2COc2cc3c(cn2)CN(C)CC3)cn1` [Example 3, 2-methyl-6-{[5-methyl-3-(6-methylpyridin-3-yl)-1,2-oxazol-4-yl]methoxy}-1,2,3,4-tetrahydro-2,7-naphthyridine], the pKi in experiment [1] is 8.38. With `Cc1nnn(-c2ccc(C(F)F)nc2)c1COc1cc2c(cn1)CNCC2` [Example 23, 6-({1-[6-(difluoromethyl)pyridin-3-yl]-4-methyl-1H-1,2,3-triazol-5-yl}methoxy)-1,2,3,4-tetrahydro-2,7-naphthyridine], the pKi in experiment [1] is 8.14. Regarding `Cc1ccc(-c2noc(C)c2COc2cc3c(cn2)CN(CC2CCC2)CC3)cn1` [Example 5, 2-(cyclobutylmethyl)-6-{[5-methyl-3-(6-methylpyridin-3-yl)-1,2-oxazol-4-yl]methoxy}-1,2,3,4-tetrahydro-2,7-naphthyridine], in experiment [1], the pKi was 8.13.

One may read the pKi as the negative decadic logarithm of the Ki, by convention in mol/L.

Source of the values: US20250051323A1 (RICHTER GEDEON NYRT., priority 2021, published 2025).
